Experimental data: patent US8933114B2, “Polymorphic forms of asenapine maleate and processes for their preparation” (Chemo Iberica, S.A., priority 2010, dated 2015)
Where a name gives a salt, the structure may show the parent alone.

Legend:
[1] = solid-state stability of the freeze-dried amorphous form upon standing; assay type: physicochemical; conditions: amorphous form prepared by freeze-drying
Excerpt: WO 2008/040816 discloses an amorphous form of asenapine maleate, prepared via spray-drying or freeze-drying processes.

[2] = stability of the polymorphic forms at room temperature; assay type: physicochemical; conditions: solid form
[3] = micronization step starting from the monoclinic form; cited from earlier work

In the case of `CN1C[C@H]2c3ccccc3Oc3ccc(Cl)cc3[C@@H]2C1` [amorphous form, asenapine maleate], the “stability of solid form upon standing” value [1] is reported as “not stable, and spontaneously converts into Form H upon standing”.

In the case of `CN1C[C@H]2c3ccccc3Oc3ccc(Cl)cc3[C@@H]2C1` [Form G, asenapine maleate], the “stability at room temperature” value [2] is reported as “stable at room temperature”.

In the case of `CN1C[C@H]2c3ccccc3Oc3ccc(Cl)cc3[C@@H]2C1` [Form H, asenapine maleate], the “polymorphic form obtained after micronization” value [3] is given as “an unpredictable mixture of Form H and Form L is obtained”.
